Experimental data as given in patent US10588879B2, “Treatment of age-related macular degeneration” (Aurin Biotech Inc., priority 2011, dated 2020).
Like-named read-outs stand apart in the source and are kept apart here.

How the values were obtained:
[1] = system: classical complement pathway; experiment: CH50 assay, human serum, sensitized sheep red blood cell hemolysis; type: cell-based; settings: sensitized sheep red blood cells, 1 hour at 37° C., read-out: IC50, inhibition of human complement-mediated red blood cell hemolysis
Description: To evaluate the strength of blockade of the classical complement pathway by the low molecular weight products of the aurin tricarboxylic acid complex, (i.e. ATA plus AQA plus AHA), the standard CH50 assay was employed. Sheep red blood cells were sensitized by incubation overnight with rabbit anti sheep red blood cell antibody. Then dilutions of serum, with and without various amounts of the low molecular weight aurin tricarboxylic acid fraction (ATAC), were incubated with the sensitized red blood cells for 1 hour at 37° C. The incubates were centrifuged at 5,000 rpm for 10 min. The hemoglobin released into the serum from red blood cells that had been destroyed by complement attack, was determined by reading the optical density (OD) at 405 nm. As a positive control, red blood cells were 100% lysed with water, and as a negative control, no serum was added to the incubate.

[2] = target: T1, membrane attack complex (addition of C9 to C5b678) (Homo sapiens, UniProt P02748); experiment: Western blot variation of CH50 assay: stage of complement blockade; type: biochemical; settings: human serum diluted 16 fold, pre-treated 30 min; blots with antibodies to C6, C7, C8, C9
T1 construct: from tissue; host or cells: normal human serum (with antibody-sensitized sheep red blood cells)
Description: Normal human serum was pre-treated with aliquots of aqueous solutions of ATA, AQA, AHA and ATAC prior to adding sheep red blood cells sensitized to human complement. The reaction mixtures were incubated at 37° C. for 1 h. Aliquots were loaded on 10% polyacrylamide gels and subjected to SDS-PAGE. Proteins were transferred to membranes and developed with appropriate primary antibodies to complement proteins (Table 1): FIG. 4A: Western blots of membranes developed with antibodies to C1q, C3, C4 and C5. Lane 1, untreated serum; lane 2, serum with red blood cells added; lane 3 serum with red blood cells protected with ATAC. Notice that in untreated serum, bands for C1q, C3, C4, and C5 were readily detected. In lanes 2 and 3, the activated products C3d, C4d, and C5a were detected indicating opsonization had taken place. […] It can be seen that C5b-9 is […] detected upon probing with C6, C7, C8 and C9, thus establishing that the ATAC block was at the C9 stage. […]
To determine at which stage of assembly of the membrane attack complex was being blocked, additional analyses were carried. […] The C6 antibody detected C5b6, C5b67, and C5b678. The C7 antibody detected C5b67 and C5b678, while the C8 antibody detected C5b678. […]

T1 sequence (P02748 22-559, one chain of several): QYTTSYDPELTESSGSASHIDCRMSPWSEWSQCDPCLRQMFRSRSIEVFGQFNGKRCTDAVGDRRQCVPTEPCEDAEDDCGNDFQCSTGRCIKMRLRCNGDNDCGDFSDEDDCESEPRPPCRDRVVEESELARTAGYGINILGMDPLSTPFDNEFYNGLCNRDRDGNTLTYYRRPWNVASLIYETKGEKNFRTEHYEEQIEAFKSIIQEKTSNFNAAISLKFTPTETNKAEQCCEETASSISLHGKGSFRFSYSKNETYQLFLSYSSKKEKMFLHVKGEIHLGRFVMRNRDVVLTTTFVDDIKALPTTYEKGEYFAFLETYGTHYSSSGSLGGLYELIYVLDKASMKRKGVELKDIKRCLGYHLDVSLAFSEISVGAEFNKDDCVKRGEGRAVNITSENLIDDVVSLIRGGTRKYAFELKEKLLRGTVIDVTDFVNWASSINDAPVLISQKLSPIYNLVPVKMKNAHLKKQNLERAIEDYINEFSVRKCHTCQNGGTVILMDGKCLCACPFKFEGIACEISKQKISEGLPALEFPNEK

| Compound | IC50 [1] [nM] | stage at which membrane attack complex formation is arrested [2] | IC50 ([1]; Erythrocyte) [nM] |
| --- | --- | --- | --- |
| 5,5′-((3-carboxy-5-((3-carboxy-4-oxocyclohexa-2,5-dien-1-ylidene)methyl)-4-hydroxybenzyl)-4-hydroxyphenyl)methylene)bis(2-hydroxybenzoic acid) [AHA] | 559 | becomes arrested at the C8 stage | – |
| O=C(O)C1=CC(=Cc2cc(C(c3ccc(O)c(C(=O)O)c3)c3ccc(O)c(C(=O)O)c3)cc(C(=O)O)c2O)C=CC1=O [AQA] | 576 | becomes arrested at the C8 stage | – |
| O=C(O)C1=CC(=C(c2ccc(O)c(C(=O)O)c2)c2ccc(O)c(C(=O)O)c2)C=CC1=O [ATA, 5,5′-((3-carboxy-4-oxocyclohexa-2,5-dienn-1-ylidene)methylene)bis(2-hydroxybenzoic acid)] | – | – | 544 |
